Results taken from patent US20250011311A1, “AMIDO HETEROAROMATIC COMPOUNDS” (AstraZeneca AB, priority 2022, published 2025).

Assays:
[1] = molecular target: recombinant 17bHSD13 (N2-K300) (Homo sapiens (Human), UniProt Q7Z5P4); test: In Vitro 17bHSD13 Enzyme Assay; type: biochemical; conditions: 80 nM 17bHSD13, 0.5 mM NAD, 20 μM Estradiol, 2.5 h; estradiol to estrone by LC-MS/MS
How it was run: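 Human 17bHSD13 (N2-K300, 80 nM) with 0.5 mM NAD, 20 μM estradiol and varied compound in 50 mM Tris-Cl pH 7.4, 5 mM EDTA, 0.01% DDM. Estrone/(estrone+estradiol) ratio read by LC-MS/MS (APCI, positive MRM). Inhibition normalised to DMSO and a known-inhibitor control; IC50 from curve fit.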

[2] = molecular target: recombinant 17bHSD4 (M1-N311) (Homo sapiens (Human), UniProt P51659); test: In Vitro 17bHSD4 Enzyme Assay; type: biochemical; conditions: 40 nM 17bHSD4, 0.125 mM NAD, 15 μM Estradiol, 1.5 h; NADH fluorescence; read-out: 17HSD17b4 Enzyme assay IC50
Sequence of recombinant 17bHSD4 (M1-N311) (P51659 1-311): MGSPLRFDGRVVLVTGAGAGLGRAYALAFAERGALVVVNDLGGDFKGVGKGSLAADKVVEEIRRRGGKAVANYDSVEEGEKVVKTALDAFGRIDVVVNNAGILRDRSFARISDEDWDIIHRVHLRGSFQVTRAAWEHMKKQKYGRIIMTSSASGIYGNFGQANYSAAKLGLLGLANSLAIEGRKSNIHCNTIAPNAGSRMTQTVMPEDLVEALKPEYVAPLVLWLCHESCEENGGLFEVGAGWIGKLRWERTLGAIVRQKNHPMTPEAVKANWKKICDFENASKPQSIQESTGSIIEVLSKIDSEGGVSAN

[3] = molecular target: over expressed HSD17β13 in HEK293S cells (Homo sapiens (Human), UniProt Q7Z5P4); test: In Vitro 17bHSD13 Cell Assay; type: cell-based; conditions: HEK293S cells over expressing HSD17β13; estradiol to estrone conversion, 18 h, LC-MS/MS; read-out: 17bHSD1713 Cell assay IC50
Sequence of over expressed HSD17β13 in HEK293S cells (Q7Z5P4 20-300): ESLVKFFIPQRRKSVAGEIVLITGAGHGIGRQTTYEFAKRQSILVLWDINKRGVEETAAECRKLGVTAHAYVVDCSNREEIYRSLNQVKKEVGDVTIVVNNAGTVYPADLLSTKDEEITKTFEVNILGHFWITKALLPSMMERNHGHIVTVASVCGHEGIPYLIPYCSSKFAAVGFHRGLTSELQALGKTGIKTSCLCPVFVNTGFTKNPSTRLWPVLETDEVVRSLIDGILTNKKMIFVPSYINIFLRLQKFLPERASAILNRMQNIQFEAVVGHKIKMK
How it was run: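 HEK293S cells overexpressing HSD17β13 convert estradiol to estrone; product read by LC-MS/MS (APCI, positive MRM) as AUC ratio estrone/(estrone+estradiol). Effect normalised between DMSO and maximal inhibition by a known inhibitor control; IC50 from curve fit.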

[4] = tested on: human hepatocytes; test: Assay A: Metabolic Stability in Human Hepatocytes; type: in vitro ADME; conditions: cryopreserved human hepatocytes, 10^6 viable cells/mL, 1 μM compound, 37° C.
Method: Assay A: Metabolic Stability in Human Hepatocytes
Hepatocyte metabolic stability was determined in accordance with the method described by Jacobson et al., An optimized automated assay for determination of metabolic stability using hepatocytes: assay validation, variance component analysis, and in vivo relevance. Assay Drug Dev Technol 2007, 5 (3), 403-415. DOI: 10.1089/adt.2007.059, which is incorporated herein by reference. Cryopreserved hepatocytes at a concentration of 10^6 viable cells/mL were used. After thawing, hepatocytes were incubated for 10 min to warm to 37° C. and test compounds, dissolved in acetonitrile, were added to give a final concentration of 1 μM. At 0.5, 5, 15, 30, 45, 60, 80, 100 and 120 min, the incubation system was mixed and 20 μL aliquots were transferred at each time point to wells in a separate plate filled with 80 μL MeCN to stop the reaction. The quenching plate was then vortexed followed by centrifugation, and supernatants were analyzed by LC-MS/MS. Peak areas were determined from extracted ion chromatograms, and the in vitro intrinsic clearance (in vitro CLint, in μL/min/10^6 cells) of parent compound was calculated from the slope in the regression analysis of the natural logarithm of parent concentration vs time curve.

[5] = molecular target: CYP2C9 (Homo sapiens (Human), UniProt P11712); test: Assay B: Cytochrome P450 Inhibition 2C9
Sequence of CYP2C9 (P11712 whole entry): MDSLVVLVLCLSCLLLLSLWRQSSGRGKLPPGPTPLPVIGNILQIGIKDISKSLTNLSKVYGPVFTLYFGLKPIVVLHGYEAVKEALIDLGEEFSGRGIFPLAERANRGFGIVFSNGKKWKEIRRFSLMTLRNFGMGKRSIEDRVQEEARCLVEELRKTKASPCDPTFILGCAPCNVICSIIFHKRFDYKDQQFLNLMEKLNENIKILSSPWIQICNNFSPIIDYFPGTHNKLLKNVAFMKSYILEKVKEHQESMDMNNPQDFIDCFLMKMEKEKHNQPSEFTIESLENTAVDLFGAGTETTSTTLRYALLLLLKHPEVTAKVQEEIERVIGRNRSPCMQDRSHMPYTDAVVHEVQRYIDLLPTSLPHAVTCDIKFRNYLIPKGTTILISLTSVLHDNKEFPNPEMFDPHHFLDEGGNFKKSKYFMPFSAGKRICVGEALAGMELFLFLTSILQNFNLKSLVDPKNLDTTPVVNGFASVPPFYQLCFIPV
Method: A fluorescence-based method in 96-well format was used to determine the inhibition of 2C9 (Crespi, C. L. et al., Microtiter plate assays for inhibition of human, drug-metabolizing cytochromes P450. Anal Biochem 1997, 248 (1), 188-190. DOI: 10.1006/abio.1997.2145, which is incorporated herein by reference). The recombinant human enzymes used were prepared in house, except for CYP2D6 (CYPEX LTD, Dundee, UK). Different coumarin substrates, biotransformed into fluorescent metabolites, were used as probes for each individual CYP. A fluorescence plate reader (SPECTRAMAX GEMINIXS, MOLECULAR DEVICES, Sunnyvale, California, USA) was used to measure the levels of metabolites formed. A dilution series of the test substrates was prepared at eight different concentrations. For each CYP, a mixture of the enzyme, corresponding coumarin substrate, potassium phosphate buffer pH 7.4 and water (concentrations and volumes were CYP-dependent) were added to each well in a black 96-well plate. The test substrates at different concentrations were added. After 10 min pre-incubation, the co-factor NADPH was added to initiate the reaction. After 20-50 min (CYP and substrate-dependent) the reaction was terminated by addition of trisbase/MeCN (20:80). The plates were transferred to the fluorescence plate reader where the wavelengths were set individually for the different coumarin substrates and their respective fluorescent metabolite. The responses were exported to Excel where the IC50 curves were plotted (percent inhibition versus concentration) and IC50 values calculated for each test substrate and enzyme using XL-fit.

[6] = molecular target: over expressed HSD17β9 in HEK293S cells (Homo sapiens (Human), UniProt Q92781); test: In Vitro 17bHSD9 Cell Assay; type: cell-based; conditions: HEK293S cells over expressing HSD17β9; retinol to retinal conversion, 18 h, LC-MS/MS; read-out: 17bHSD9 Cell assay IC50
Sequence of over expressed HSD17β9 in HEK293S cells (Q92781 whole entry): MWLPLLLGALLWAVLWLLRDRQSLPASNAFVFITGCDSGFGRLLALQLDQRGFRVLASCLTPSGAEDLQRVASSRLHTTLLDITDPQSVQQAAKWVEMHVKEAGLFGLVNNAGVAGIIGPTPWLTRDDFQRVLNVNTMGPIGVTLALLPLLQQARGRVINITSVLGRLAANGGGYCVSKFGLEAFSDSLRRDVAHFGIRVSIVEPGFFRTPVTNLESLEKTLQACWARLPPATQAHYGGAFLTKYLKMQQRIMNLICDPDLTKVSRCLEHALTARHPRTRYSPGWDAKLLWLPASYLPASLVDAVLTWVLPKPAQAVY
How it was run: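 HEK293S cells overexpressing HSD17β9 were plated at 10K cells/well in DMEM + 10% FBS and cultured 18 h. Retinol-to-retinal conversion in media was quantified by LC-MS/MS (MRM) as retinal/(retinal + retinol). IC50 was fitted after normalisation to DMSO and full inhibition by a reference inhibitor.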

Sequence of recombinant 17bHSD13 (N2-K300) (Q7Z5P4 2-300): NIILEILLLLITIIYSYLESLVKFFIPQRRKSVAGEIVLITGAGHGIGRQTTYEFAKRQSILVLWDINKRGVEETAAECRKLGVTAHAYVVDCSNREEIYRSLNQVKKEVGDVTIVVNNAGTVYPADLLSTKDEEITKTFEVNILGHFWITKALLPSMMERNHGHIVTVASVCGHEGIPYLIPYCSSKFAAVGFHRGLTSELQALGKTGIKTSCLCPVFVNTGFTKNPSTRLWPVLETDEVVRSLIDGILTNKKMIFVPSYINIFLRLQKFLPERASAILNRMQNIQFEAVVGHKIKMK

Row | Compound | IC50 [1] [nM] | IC50 [2] [µM] | IC50 [3] [nM] | IC50 [5] [µM] | IC50 [6] [µM] | Assay A: Human Heps Met Clint GMean CLint (μl/min/1E6) [4] [μl/min/1E6]
1 | N#Cc1c(C(=O)N2CCN(c3ccccn3)CC2)noc1-c1cc(F)c(F)c(O)c1F [Example 15, 3-(4-(Pyridin-2-yl)piperazine-1-carbonyl)-5-(2,4,5-trifluoro-3-hydroxyphenyl)isoxazole-4-carbonitrile] | 489 | 37.7 | 970 | 2.1 |  | 59.8
2 | N#Cc1c(C(=O)N2CCN(c3ccc4nnc(C(F)(F)F)n4n3)CC2)noc1-c1cc(F)c(F)c(O)c1F [Example 17, 5-(2,4,5-Trifluoro-3-hydroxyphenyl)-3-(4-(3-(trifluoromethyl)-[1,2,4]triazolo[4,3-b]pyridazin-6-yl)piperazine-1-carbonyl)isoxazole-4-carbonitrile] | 525 |  | 3100 | 0.2 |  | 6.5
3 | CC(C)(C)N(Cc1ccccn1)C(=O)c1noc(-c2cc(F)c(F)c(O)c2F)c1C#N [Example 19, N-(tert-Butyl)-4-cyano-N-(pyridin-2-ylmethyl)-5-(2,4,5-trifluoro-3-hydroxyphenyl)isoxazole-3-carboxamide] | 108 | 19.6 | 2010 | 1 |  | 4.3
4 | Cn1nc(C2CC2)c2c1CCN(C(=O)c1noc(-c3cc(F)c(F)c(O)c3F)c1C#N)C2 [Example 20, 3-(3-Cyclopropyl-1-methyl-4,5,6,7-tetrahydro-1H-pyrazolo[4,3-c]pyridine-5-carbonyl)-5-(2,4,5-trifluoro-3-hydroxyphenyl)isoxazole-4-carbonitrile] | 63 |  | 2400 | 0.4 | 29.4 | 16.8
5 | N#Cc1c(C(=O)N2CC[C@@H](c3ccc(Cl)cc3)C2)noc1-c1cc(F)c(F)c(O)c1F [Example 21, (S)-3-(3-(4-Chlorophenyl)pyrrolidine-1-carbonyl)-5-(2,4,5-trifluoro-3-hydroxyphenyl)isoxazole-4-carbonitrile] | 32 |  | 660 | 0.2 | 22.6 | 13.3
6 | N#Cc1c(C(=O)N2CCC(O)(C(F)(F)F)CC2)noc1-c1cc(F)c(F)c(O)c1F [Example 26, 3-(4-Hydroxy-4-(trifluoromethyl)piperidine-1-carbonyl)-5-(2,4,5-trifluoro-3-hydroxyphenyl)isoxazole-4-carbonitrile] | 278 |  | 2970 | 4.4 |  | 9.2
7 | N#Cc1c(C(=O)N2CC(F)(C3CC3)C2)noc1-c1cc(F)c(F)c(O)c1F [Example 27, 3-(3-Cyclopropyl-3-fluoroazetidine-1-carbonyl)-5-(2,4,5-trifluoro-3-hydroxyphenyl)isoxazole-4-carbonitrile] | 382 |  | 4090 | 3.1 |  | 14.0
8 | N#Cc1ccc(C2CCN(C(=O)c3noc(-c4cc(F)c(F)c(O)c4F)n3)CC2)cc1 [Example 56, 4-(1-(5-(2,4,5-Trifluoro-3-hydroxyphenyl)-1,2,4-oxadiazole-3-carbonyl)piperidin-4-yl)benzonitrile] | 142 | 23.5 | 1360 | 5.1 |  | 5.9

Continued, in another order:

Row | IC50 [1] [nM] | IC50 [2] [µM] | IC50 [3] [nM] | IC50 [5] [µM] | IC50 [6] [µM] | Compound | Assay A: Human Heps Met Clint GMean CLint (μl/min/1E6) [4] [μl/min/1E6]
9 | 103 | 20.6 | 1080 | 7.3 |  | O=C(c1noc(-c2cc(F)c(F)c(O)c2F)n1)N1CCN(c2ccccn2)CC1 [Example 58, (4-(Pyridin-2-yl)piperazin-1-yl)(5-(2,4,5-trifluoro-3-hydroxyphenyl)-1,2,4-oxadiazol-3-yl)methanone] | 24.6
10 | 608 |  | 3470 | 13.1 | > 50 | N#Cc1ccc(C2CN(C(=O)c3noc(-c4cc(F)c(F)c(O)c4F)n3)C2)cc1 [Example 59, 4-(1-(5-(2,4,5-Trifluoro-3-hydroxyphenyl)-1,2,4-oxadiazole-3-carbonyl)azetidin-3-yl)benzonitrile] | 10.2
11 | 137 | 11 | 2980 | 3.9 |  | O=C(c1noc(-c2cc(F)c(F)c(O)c2F)n1)N1CC(c2ccccc2)C1 [Example 60, (3-Phenylazetidin-1-yl)(5-(2,4,5-trifluoro-3-hydroxyphenyl)-1,2,4-oxadiazol-3-yl)methanone] | 13.8
12 | 242 |  | 2220 | 18.4 |  | O=C(c1noc(-c2cc(F)c(F)c(O)c2F)n1)N1CCC(Oc2cccnc2)CC1 [Example 70, (4-(Pyridin-3-yloxy)piperidin-1-yl)(5-(2,4,5-trifluoro-3-hydroxyphenyl)-1,2,4-oxadiazol-3-yl)methanone] | 12.4
13 | 75 |  | 170 | 0.3 |  | O=C(c1noc(-c2cc(F)c(F)c(O)c2F)n1)N1CC2CC2(c2ccccc2)C1 (stereo not shown) [Example 77, (1-Phenyl-3-azabicyclo[3.1.0]hexan-3-yl)(5-(2,4,5-trifluoro-3-hydroxyphenyl)-1,2,4-oxadiazol-3-yl)methanone] | 13.4
14 | 127 |  | 800 | 3 |  | COc1ccc(C(C)N(C)C(=O)c2noc(-c3cc(F)c(F)c(O)c3F)n2)cc1 (stereo not shown) [Example 78, N-(1-(4-Methoxyphenyl)ethyl)-N-methyl-5-(2,4,5-trifluoro-3-hydroxyphenyl)-1,2,4-oxadiazole-3-carboxamide] | 28.2
15 | 106 |  | 1390 | 2 |  | O=C(c1noc(-c2cc(F)c(F)c(O)c2F)n1)N1CCC(Oc2ccc(F)cc2)C1 (stereo not shown) [Example 79, (3-(4-Fluorophenoxy)pyrrolidin-1-yl)(5-(2,4,5-trifluoro-3-hydroxyphenyl)-1,2,4-oxadiazol-3-yl)methanone] | 10.1
16 | 62 |  | 450 | 4.3 | > 50 | N#Cc1ccccc1N1CCN(C(=O)c2noc(-c3cc(F)c(F)c(O)c3F)n2)CC1 [Example 82, 2-(4-(5-(2,4,5-Trifluoro-3-hydroxyphenyl)-1,2,4-oxadiazole-3-carbonyl)piperazin-1-yl)benzonitrile] | 15.4
17 | 516 |  | 1220 | 5.9 | > 50 | N#Cc1ccc2c(c1)CN(C(=O)c1noc(-c3cc(F)c(F)c(O)c3F)n1)C2 [Example 106, 2-(5-(2,4,5-Trifluoro-3-hydroxyphenyl)-1,2,4-oxadiazole-3-carbonyl)isoindoline-5-carbonitrile] | 16.1
18 | 42 |  |  | 27 | 24.1 | C[C@@H]1CN(C(=O)c2noc(-c3c(F)c(O)c(F)c(F)c3Br)n2)C[C@H](C)O1 [Example 124, (5-(2-Bromo-3,4,6-trifluoro-5-hydroxyphenyl)-1,2,4-oxadiazol-3-yl)((2R,6S)-2,6-dimethylmorpholino)methanone] | 11.1
